Source: patent US20140220108A1, “COCHLEATE COMPOSITIONS AND METHODS OF MAKING AND USING SAME” (priority 2011, published 2014)
Converted amounts (≈) assume the structure as drawn. Where two headings read alike, the source gives them in different places.

Assays:
[1] = Encochleation efficiency by lipid composition, drug in supernatant after centrifugation; assay type: physicochemical; conditions: independent of the lipid composition of the PS vesicles
Protocol: For example, incorporation of phosphatidylserine (PS) combined with 99.9% pure dioleoyl PS, 99.9% pure soy PS, 75% soy PS and 50% soy PS, were used to manufacture cochleates. The lipid composition of 99.9% pure PS was modified by the addition of sphingomyelin, phosphatidylcholine and/or cholesterol. Encochleation efficiency was determined by assaying the concentration of drug in the supernatant following centrifugation.

M. avium 101 [2] = experiment: M. avium 101-infected mouse peritoneal macrophages (Raw 264.7), intracellular bacteria after 4 days of treatment; assay type: cell-based, Mycobacterium avium
Protocol: (§1) Amikacin cochleate (Amkcch) formulations were optimized for amikacin encochleation efficiency and particle size by varying the type of PS used, the PS:drug ratio, PS:Ca ratio, and NaCl concentration. The efficacy of Amkcch against intracellular Ma infections was evaluated in vitro using mouse peritoneal macrophage infected with M. avium strains MAC 101 or MAC 109. Mouse peritoneal macrophages (Mo) Raw 264.7 cells were seeded at 10^5 cells/well. Mo monolayers were infected at ratio 1:10 for 1 h and extracellular bacteria removed. Monolayers were treated with free amikacin and/or cochleate preparations for 4 days and the number of intracellular bacteria determined. Assays were repeated three times.
as §1, with “The” for “Amikacin cochleate (Amkcch) formulations were optimized for amikacin encochleation efficiency and particle size by varying the type of PS used, the PS:drug ratio, PS:Ca ratio, and NaCl concentration. The”, “Amkcch against,” for “Amkcch against”, “1 hour” for “1 h”
The cochleate preparations used to evaluate biological activity against Mycobacterium avium in vitro included: 1. 2.0 ml/vial of 0 M NaCl amikacin formulation with 0.5 mg/ml; 2. 2.0 ml/vial of 0.066M NaCl amikacin formulation with 0.5 mg/ml; 3. 2.0 ml/vial of 0.33M NaCl amikacin formulation with 0.5 mg/ml; 4. 2.0 ml/vial of 0.66M NaCl amikacin formulation with 0.5 mg/ml; 5. 2.0 ml/vial of 0 M NaCl placebo formulation with 5 mg PS/ml; 6. 2.0 ml/vial of placebo formulation plus amikacin with 0.5 mg/ml; and 7. 2.0 ml/vial of free amikacin in water with 0.5 mg/ml.

M. avium 101 [3] = experiment: Splenic bacterial counts in M. avium 101-infected C57BL/6 mice; assay type: in vivo, Mycobacterium avium; conditions: 1 mg amikacin/mouse/day, 2 weeks, 3 weeks infected control 7.8 ± 0.4 × 10^7
M. avium = conditions: cited from earlier work
F. tularensis LVS = assay type: cell-based, Francisella tularensis; conditions: no treatment 3.0 ± 0.3 × 10^6
M. avium 109 = experiment: M. avium 109-infected mouse peritoneal macrophages (Raw 264.7), intracellular bacteria after 4 days of treatment; assay type: cell-based, Mycobacterium avium; conditions: inoculum 2.4 ± 0.3 × 10^5, untreated 3.1 ± 0.6 × 10^6
Protocol: as §1
as §1, with “The” for “Amikacin cochleate (Amkcch) formulations were optimized for amikacin encochleation efficiency and particle size by varying the type of PS used, the PS:drug ratio, PS:Ca ratio, and NaCl concentration. The”, “Amkcch against,” for “Amkcch against”, “1 hour” for “1 h”
The cochleate preparations used to evaluate biological activity against Mycobacterium avium in vitro included: 1. 2.0 ml/vial of 0 M NaCl amikacin formulation with 0.5 mg/ml; 2. […]

MAC184 strain = experiment: MIC against clarithromycin-resistant clinical isolate MAC184; design: species or system M. avium; conditions: Mycobacterium avium
MAC 101 = experiment: MIC against susceptible M. avium strain MAC 101; conditions: Mycobacterium avium, such as MAC 101

## C[C@@H]1[C@H](O)[C@@H](C)/C=C/C=C/C=C/C=C/C=C/C=C/C=C/[C@H](O[C@@H]2O[C@H](C)[C@@H](O)[C@H](N)[C@@H]2O)C[C@@H]2O[C@](O)(C[C@@H](O)C[C@@H](O)[C@H](O)CC[C@@H](O)C[C@@H](O)CC(=O)O[C@H]1C)C[C@H](O)[C@H]2C(=O)O [AmB, Amphotericin B]
[1]
  encochleation efficiency: greater than 85%

## NCC[C@H](O)C(=O)N[C@@H]1C[C@H](N)[C@@H](O[C@H]2O[C@H](CN)[C@@H](O)[C@H](O)[C@H]2O)[C@H](O)[C@H]1O[C@H]1O[C@H](CO)[C@@H](O)[C@H](N)[C@H]1O [Free amikacin, amikacin]
M. avium 101 [2]; 20 μg/l, inoculum 3.8 ± 0.4 × 10^5, untreated 4.9 ± 0.5 × 10^6
  # bacteria day 4: 3.8 ± 0.5 × 10^4
M. avium 101 [2]; inoculum 3.8 ± 0.4 × 10^5, untreated 4.9 ± 0.5 × 10^6
  # bacteria day 4: 4.9 ± 0.3 × 10^4
M. avium 101 [3]; I.P.
  CFU/spleen: 9.3 ± 0.4 × 10^6 CFU/spleen
M. avium 101 [3]; oral
  CFU/spleen: 6.9 ± 0.3 × 10^7 CFU/spleen
M. avium
  frequency of resistance: 10^−11
F. tularensis LVS; amikacin 4 μg/ml
  intracellular bacteria Day 4: 7.6 ± 0.3 × 10^2 CFU/ml
M. avium 109; 10 μg/l
  # bacteria day 4: 5.0 ± 0.3 × 10^4
M. avium 109; 20 μg/l
  # bacteria day 4: 2.9 ± 0.4 × 10^4

## gentamicin [Free gentamicin]
M. avium 101 [2]; gentamicin 30 μg/ml (30 μg/l in two rows), untreated 6.4 ± 0.5 × 10^6
  # bacteria day 4: 1.9 ± 0.3 × 10^5
F. tularensis LVS; gentamicin 2 μg/ml
  intracellular bacteria Day 4: 9.3 ± 0.3 × 10^2 CFU/ml

## CC[C@@H](CO)NCCN[C@@H](CC)CO [ethambutol]
MAC184 strain
  MIC: 8 µg/mL (≈ 39.2 µM)
MAC 101
  MIC: 4 µg/mL (≈ 19.6 µM)
